Assay results taken from US6809065B2, “Herbicide containing substituted pyrazole derivative as active ingredient” (SDS Biotech K.K., priority 2001, dated 2004).

How the values were obtained:
[1] = test system: Chenopodium album; experiment: Upland field foliage treatment (Test Example 1); format: in vivo; settings: foliage treatment 14th day after sowing, wettable powder, 1 kg active ingredient per hectare, evaluated 21st day after application
In short: (§1)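 Foliar spray, 1 kg a.i./ha, wettable powder in water, applied 14 d post-sowing; seeds covered by ~1 cm upland soil. Index scoring at 21 d. Higher index = stronger weed control; for crops, lower index = greater safety.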

[2] = test system: Digitaria adscendens; experiment: Upland field foliage treatment (Test Example 1); format: in vivo; settings: foliage treatment 14th day after sowing, wettable powder, 1 kg active ingredient per hectare, evaluated 21st day after application
In short: as §1

[3] = test system: Setaria viridis; experiment: Upland field foliage treatment (Test Example 1); format: in vivo; settings: foliage treatment 14th day after sowing, wettable powder, 1 kg active ingredient per hectare, evaluated 21st day after application
In short: as §1

[4] = test system: Stellaria media; experiment: Upland field foliage treatment (Test Example 1); format: in vivo; settings: foliage treatment 14th day after sowing, wettable powder, 1 kg active ingredient per hectare, evaluated 21st day after application
In short: as §1

[5] = test system: soybean (Glycine max); experiment: Upland field foliage treatment (Test Example 1), crop; format: in vivo; settings: foliage treatment 14th day after sowing, 1 kg active ingredient per hectare, evaluated 21st day, lower index = higher safety
In short: as §1

[6] = test system: wheat (Triticum aestivum); experiment: as above; format: in vivo; settings: foliage treatment 14th day after sowing, 1 kg active ingredient per hectare, evaluated 21st day, lower index = higher safety
In short: as §1

[7] = test system: Chenopodium album; experiment: Upland soil treatment (Test Example 2); format: in vivo; settings: soil surface treatment next day after sowing, wettable powder, 1 kg active ingredient per hectare, evaluated 21st day after application
In short: (§2)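 Upland soil in pots was sown with weed and crop seeds, covered with about 1 cm soil, and next day sprayed on the surface with wettable-powder formulation at 1 kg active ingredient per hectare. Effects were scored by index on day 21; higher index means stronger weed control, lower index means better crop safety.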

[8] = test system: Digitaria adscendens; experiment: Upland soil treatment (Test Example 2); format: in vivo; settings: soil surface treatment next day after sowing, wettable powder, 1 kg active ingredient per hectare, evaluated 21st day after application
In short: as §2

[9] = test system: Setaria viridis; experiment: Upland soil treatment (Test Example 2); format: in vivo; settings: soil surface treatment next day after sowing, wettable powder, 1 kg active ingredient per hectare, evaluated 21st day after application
In short: as §2

[10] = test system: Stellaria media; experiment: Upland soil treatment (Test Example 2); format: in vivo; settings: soil surface treatment next day after sowing, wettable powder, 1 kg active ingredient per hectare, evaluated 21st day after application
In short: as §2

[11] = test system: soybean (Glycine max); experiment: Upland soil treatment (Test Example 2), crop; format: in vivo; settings: soil surface treatment next day after sowing, 1 kg active ingredient per hectare, evaluated 21st day, lower index = higher safety
In short: as §2

[12] = test system: wheat (Triticum aestivum); experiment: Upland soil treatment (Test Example 2), crop; format: in vivo; settings: soil surface treatment next day after sowing, 1 kg active ingredient per hectare, evaluated 21st day, lower index = higher safety
In short: as §2

[13] = test system: Echinochloa spp.; experiment: Paddy field treatment (Test Example 3); format: in vivo, Echinochloa crusgalli; settings: paddy pot, submerged 4 cm, dropped on water surface 10th day after transplantation, 1 kg active ingredient per hectare, evaluated 21st day
In short: (§3)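 Paddy soil in pots was puddled and flooded to 4 cm, weeds were sown, and two-leaf Koshihikari rice was transplanted at 3 cm depth. Ten days after transplanting, wettable powder was applied onto the water surface at 1 kg active ingredient per hectare. Herbicidal effect was index-scored 21 days later.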

[14] = test system: Ammannia multiflora; experiment: Paddy field treatment (Test Example 3); format: in vivo; settings: paddy pot, submerged 4 cm, dropped on water surface 10th day after transplantation, 1 kg active ingredient per hectare, evaluated 21st day
In short: as §3

[15] = test system: Monochoria vaginalis; experiment: Paddy field treatment (Test Example 3); format: in vivo; settings: paddy pot, submerged 4 cm, dropped on water surface 10th day after transplantation, 1 kg active ingredient per hectare, evaluated 21st day
In short: as §3

[16] = test system: Scirpus juncoides; experiment: Paddy field treatment (Test Example 3); format: in vivo; settings: paddy pot, submerged 4 cm, dropped on water surface 10th day after transplantation, 1 kg active ingredient per hectare, evaluated 21st day
In short: as §3

[17] = test system: rice (Oryza sative, variety: Koshihikari); experiment: Paddy field treatment (Test Example 3), crop; format: in vivo, Oryza sativa; settings: transplanted rice two-leaf period, water surface treatment 10th day after transplantation, 1 kg active ingredient per hectare, evaluated 21st day, lower index = higher safety
In short: as §3

Compound	Herbicidal activity Chenopodium album [1]	Herbicidal activity Digitaria adscendens [2]	Herbicidal activity Setaria viridis [3]	Herbicidal activity Stellaria media [4]	Herbicidal activity Glycine max [5]	Herbicidal activity Triticum aestivum [6]	Herbicidal activity Chenopodium album [7]	Herbicidal activity Digitaria adscendens [8]	Herbicidal activity Setaria viridis [9]	Herbicidal activity Stellaria media [10]	Herbicidal activity Glycine max [11]	Herbicidal activity Triticum aestivum [12]	Herbicidal activity Echinochloa spp. [13]	Herbicidal activity Ammannia multiflora [14]	Herbicidal activity Monochoria vaginalis [15]	Herbicidal activity Scirpus juncoides [16]	Herbicidal activity Oryza sativa [17]
COC=C(Cn1nc(-c2cccc(C)c2)c(Cl)c1C)C(=O)OC [Compound 17]	5 (herbicidal effect of not less than 90% by weight)	4 (herbicidal effect of not less than 70% by weight and less than 90% by weight)	5 (herbicidal effect of not less than 90% by weight)	5 (herbicidal effect of not less than 90% by weight)	0 (herbicidal effect of not less than 0% by weight and less than 10% by weight)	0 (herbicidal effect of not less than 0% by weight and less than 10% by weight)	4 (herbicidal effect of not less than 70% by weight and less than 90% by weight)	4 (herbicidal effect of not less than 70% by weight and less than 90% by weight)	4 (herbicidal effect of not less than 70% by weight and less than 90% by weight)	4 (herbicidal effect of not less than 70% by weight and less than 90% by weight)	0 (herbicidal effect of not less than 0% by weight and less than 10% by weight)	0 (herbicidal effect of not less than 0% by weight and less than 10% by weight)	5 (herbicidal effect of not less than 90% by weight)	5 (herbicidal effect of not less than 90% by weight)	5 (herbicidal effect of not less than 90% by weight)	4 (herbicidal effect of not less than 70% by weight and less than 90% by weight)	0 (herbicidal effect of not less than 0% by weight and less than 10% by weight)
COC=C(Cn1nc(-c2ccc(Cl)c(Cl)c2)cc1C)C(=O)OC [Compound 10]	4 (herbicidal effect of not less than 70% by weight and less than 90% by weight)	4 (herbicidal effect of not less than 70% by weight and less than 90% by weight)	4 (herbicidal effect of not less than 70% by weight and less than 90% by weight)	4 (herbicidal effect of not less than 70% by weight and less than 90% by weight)	0 (herbicidal effect of not less than 0% by weight and less than 10% by weight)	0 (herbicidal effect of not less than 0% by weight and less than 10% by weight)	4 (herbicidal effect of not less than 70% by weight and less than 90% by weight)	5 (herbicidal effect of not less than 90% by weight)	4 (herbicidal effect of not less than 70% by weight and less than 90% by weight)	4 (herbicidal effect of not less than 70% by weight and less than 90% by weight)	0 (herbicidal effect of not less than 0% by weight and less than 10% by weight)	0 (herbicidal effect of not less than 0% by weight and less than 10% by weight)	3 (herbicidal effect of not less than 50% by weight and less than 70% by weight)	3 (herbicidal effect of not less than 50% by weight and less than 70% by weight)	3 (herbicidal effect of not less than 50% by weight and less than 70% by weight)	3 (herbicidal effect of not less than 50% by weight and less than 70% by weight)	0 (herbicidal effect of not less than 0% by weight and less than 10% by weight)
COC=C(Cn1ccc(-c2ccccc2)n1)C(=O)OC [Compound 1]	5 (herbicidal effect of not less than 90% by weight)	5 (herbicidal effect of not less than 90% by weight)	5 (herbicidal effect of not less than 90% by weight)	5 (herbicidal effect of not less than 90% by weight)	1 (herbicidal effect of not less than 10% by weight and less than 30% by weight)	1 (herbicidal effect of not less than 10% by weight and less than 30% by weight)	4 (herbicidal effect of not less than 70% by weight and less than 90% by weight)	5 (herbicidal effect of not less than 90% by weight)	4 (herbicidal effect of not less than 70% by weight and less than 90% by weight)	4 (herbicidal effect of not less than 70% by weight and less than 90% by weight)	0 (herbicidal effect of not less than 0% by weight and less than 10% by weight)	0 (herbicidal effect of not less than 0% by weight and less than 10% by weight)	5 (herbicidal effect of not less than 90% by weight)	4 (herbicidal effect of not less than 70% by weight and less than 90% by weight)	5 (herbicidal effect of not less than 90% by weight)	5 (herbicidal effect of not less than 90% by weight)	1 (herbicidal effect of not less than 10% by weight and less than 30% by weight)
COC=C(Cn1nc(-c2cc(Cl)ccc2Cl)c(Br)c1C)C(=O)OC [Compound 31]	5 (herbicidal effect of not less than 90% by weight)	5 (herbicidal effect of not less than 90% by weight)	5 (herbicidal effect of not less than 90% by weight)	5 (herbicidal effect of not less than 90% by weight)	1 (herbicidal effect of not less than 10% by weight and less than 30% by weight)	1 (herbicidal effect of not less than 10% by weight and less than 30% by weight)	5 (herbicidal effect of not less than 90% by weight)	5 (herbicidal effect of not less than 90% by weight)	5 (herbicidal effect of not less than 90% by weight)	5 (herbicidal effect of not less than 90% by weight)	0 (herbicidal effect of not less than 0% by weight and less than 10% by weight)	0 (herbicidal effect of not less than 0% by weight and less than 10% by weight)	5 (herbicidal effect of not less than 90% by weight)	5 (herbicidal effect of not less than 90% by weight)	5 (herbicidal effect of not less than 90% by weight)	5 (herbicidal effect of not less than 90% by weight)	1 (herbicidal effect of not less than 10% by weight and less than 30% by weight)
